In ChEMBL document CHEMBL1156034, “The first pharmacophore model for potent NF-kappaB inhibitors” (Bioorg Med Chem Lett, 2009):
Where a SMILES comes first, the peptide text is derived from it. The star is where a group is joined. Cbz = O=C(OCc1ccccc1)*

Experiment: Inhibition of NF-kappaB activation

Going from `Clc1ccc(CNc2ncnc3ccccc23)cc1` to `Clc1ccc(CCNc2ncnc3ccccc23)cc1`, the IC50 falls from 1.83 µM to 0.63 µM (2.9-fold). The second is the more potent here.

`Oc1ccc2ncnc(NCCc3ccc(Cl)cc3)c2c1` and `Clc1ccc(CCNc2ncnc3ccc(Cl)cc23)cc1` are within 1.5-fold of each other in IC50: 0.313 µM for the first, 0.344 µM for the second.

`O=[N+]([O-])c1ccc2ncnc(NCCc3ccc(Cl)cc3)c2c1` and `O=[N+]([O-])c1ccc2c(NCCc3ccc(Cl)cc3)ncnc2c1` are within 1.5-fold of each other in IC50: 1.52 µM for the first, 1.77 µM for the second.

Going from `Nc1ccc2ncnc(NCCc3ccc(Cl)cc3)c2c1` to `Nc1ccc2c(NCCc3ccc(Cl)cc3)ncnc2c1`, the IC50 rises from 0.176 µM to 2.2 µM (13-fold). The first is the more potent here.

`Clc1ccc(CCNc2ncnc3ccc(Br)cc23)cc1` and `Cc1ccc2ncnc(NCCc3ccc(Cl)cc3)c2c1` are within 1.5-fold of each other in IC50: 0.851 µM for the first, 0.73 µM for the second.

First: O=[N+]([O-])c1cc2c(NCCc3ccc(Cl)cc3)ncnc2cc1Cl
Second: Nc1cc2c(NCCc3ccc(Cl)cc3)ncnc2cc1Cl
The IC50 of the first is 21-fold higher: 9.06 µM for the first, 0.429 µM for the second. The second is the more potent here.

`O=C1c2ccc(O)cc2C(=O)N1c1c(Br)cccc1Br` and `CC(C)c1cccc(C(C)C)c1N1C(=O)c2ccc(O)cc2C1=O` are within 1.5-fold of each other in IC50: 0.43 µM for the first, 0.53 µM for the second.

`Cc1ccc(S(=O)(=O)Nc2cccc3cccnc23)c([N+](=O)[O-])c1` and `Cc1ccc([N+](=O)[O-])cc1S(=O)(=O)Nc1cccc2cccnc12` are within 1.5-fold of each other in IC50: 2.1 µM for the first, 1.6 µM for the second.

Compared with `COc1cc(NS(=O)(=O)c2ccc(C)cc2N)c2ncccc2c1`, `COc1cc(NS(=O)(=O)c2ccc(C)cc2[N+](=O)[O-])c2ncccc2c1` is 2.1-fold higher in IC50: 1 µM for the first, 2.1 µM for the second.

Compared with `Nc1ccccc1S(=O)(=O)Nc1cccc2cccnc12`, `O=[N+]([O-])c1ccccc1S(=O)(=O)Nc1cccc2cccnc12` is 1.6-fold higher in IC50: 2 µM for the first, 3.2 µM for the second.

`Cc1ccc2cccc(NS(=O)(=O)c3ccccc3[N+](=O)[O-])c2n1` and `Cc1ccc2cccc(NS(=O)(=O)c3ccccc3N)c2n1` are within 1.5-fold of each other in IC50: 3.8 µM for the first, 2.8 µM for the second.

`Cc1ccc2cccc(NS(=O)(=O)c3ccc(Cl)s3)c2n1` and `Cc1ccc2cccc(NS(=O)(=O)c3ccc(Br)s3)c2n1` are within 1.5-fold of each other in IC50: 1 µM for the first, 1.4 µM for the second.

Compared with `O=S(=O)(Nc1cccc2cccnc12)c1cccs1`, `O=S(=O)(Nc1cccc2cccnc12)c1ccc(Cl)s1` is 2.8-fold lower in IC50: 3.6 µM for the first, 1.3 µM for the second.

First: Cc1ccc2cccc(NS(=O)(=O)c3ccc(C(F)(F)F)cc3[N+](=O)[O-])c2n1
Second: O=[N+]([O-])c1cc(C(F)(F)F)ccc1S(=O)(=O)Nc1cccc2cccnc12
The IC50 of the first is 3.4-fold lower: 1.1 µM for the first, 3.7 µM for the second. The first is the more potent here.

Compared with `COc1cnc2c3c(ccc2c1)-c1ccccc1S(=O)(=O)N3`, `O=S1(=O)Nc2c(ccc3cccnc23)-c2ccccc21` is 2.5-fold lower in IC50: 2.5 µM for the first, 1 µM for the second.

First: O=S1(=O)Nc2c(ccc3cccnc23)-c2cc(F)ccc21
Second: Cc1ccc2c(c1)-c1ccc3cccnc3c1NS2(=O)=O
The IC50 of the first is 2.8-fold higher: 1.7 µM for the first, 0.6 µM for the second. The second is the more potent here.

`COc1ccc(S(=O)(=O)Nc2cccc3ccc(C)nc23)c([N+](=O)[O-])c1` and `Cc1ccc2cccc(NS(=O)(=O)c3cccc([N+](=O)[O-])c3)c2n1` are within 1.5-fold of each other in IC50: 1 µM for the first, 0.9 µM for the second.

`O=S1(=O)Nc2c(ccc3cccnc23)-c2cc(C(F)(F)F)ccc21` and `Cc1ccc2ccc3c(c2n1)NS(=O)(=O)c1ccc(C(F)(F)F)cc1-3` are within 1.5-fold of each other in IC50: 1 µM for the first, 1.2 µM for the second.

`COc1cc2cccnc2c2c1-c1cc(C)ccc1S(=O)(=O)N2` and `COc1cc2ccc(C)nc2c2c1-c1cc(C)ccc1S(=O)(=O)N2` are within 1.5-fold of each other in IC50: 1.2 µM for the first, 0.9 µM for the second.

Going from `COc1ccc2c(c1)-c1ccc3ccc(C)nc3c1NS2(=O)=O` to `Cc1ccc2ccc3c(c2n1)NS(=O)(=O)c1ccc(O)cc1-3`, the IC50 rises from 2.5 µM to 10 µM (4-fold). The first is the more potent here.

`O=S(=O)(Nc1cccc2cccnc12)c1ccc(Br)s1` and `O=[N+]([O-])c1ccc(S(=O)(=O)Nc2cccc3cccnc23)cc1` are within 1.5-fold of each other in IC50: 1.1 µM for the first, 1.5 µM for the second.

`COc1ccc2c(c1)-c1ccc3cccnc3c1NS2(=O)=O` and `O=S1(=O)Nc2c(ccc3cccnc23)-c2cc(Cl)ccc21` are within 1.5-fold of each other in IC50: 1 µM for the first, 1.1 µM for the second.

Compared with `c1ccc(CCCNc2ncnc3ccccc23)cc1`, `Clc1ccc(CCCNc2ncnc3ccccc23)cc1` is 1.7-fold lower in IC50: 2.38 µM for the first, 1.4 µM for the second. The second is the more potent here.

Going from `Nc1ccc2ncnc(NCCc3ccc(Oc4ccccc4)cc3)c2c1` to `Clc1ccc(CCNc2ncnc3ccc(Oc4ccccc4)cc23)cc1`, the IC50 rises from 0.011 µM to 7.34 µM (670-fold). The first is the more potent here.

Compared with `Nc1ccc2ncnc(NCCc3cccnc3)c2c1`, `Nc1ccc2ncnc(NCCc3ccccc3)c2c1` is 27-fold lower in IC50: 8.27 µM for the first, 0.311 µM for the second. The second is the more potent here.

Going from `Nc1ccc2ncnc(NCCc3ccc(O)cc3)c2c1` to `Cc1ccc(CCNc2ncnc3ccc(N)cc23)cc1`, the IC50 falls from 3.65 µM to 0.21 µM (17-fold).

First: C#CCOc1ccc(CCNc2ncnc3ccc(N)cc23)cc1
Second: CCOc1ccc(CCNc2ncnc3ccc(N)cc23)cc1
The IC50 of the first is 1.9-fold higher: 0.04 µM for the first, 0.021 µM for the second.

Compared with `C=CCOc1ccc(CCNc2ncnc3ccc(N)cc23)cc1`, `CCCOc1ccc(CCNc2ncnc3ccc(N)cc23)cc1` is 1.7-fold higher in IC50: 0.012 µM for the first, 0.02 µM for the second. The first is the more potent here.

Compared with `CC(C)Oc1ccc(CCNc2ncnc3ccc(N)cc23)cc1`, `COc1ccc(CCNc2ncnc3ccc(N)cc23)cc1` is 2.2-fold higher in IC50: 0.04 µM for the first, 0.09 µM for the second.

Going from `Nc1ccc2ncnc(NCCN3CCOCC3)c2c1` to `Nc1ccc2ncnc(NCCN3CCCC3)c2c1`, the IC50 falls from greater than 10 µM to 3.69 µM. The second is the more potent here.

First: Nc1ccc2ncnc(NCCC3CCCCC3)c2c1
Second: Nc1ccc2ncnc(NCCN3CCCCC3)c2c1
The IC50 of the first is lower: 0.685 µM for the first, greater than 10 µM for the second.

Compared with `Clc1ccc(Nc2ncnc3ccccc23)cc1`, `Clc1ccc(CCNc2ccnc3ccccc23)cc1` is lower in IC50: greater than 10 µM for the first, 1.39 µM for the second.

Compared with `CCCCCOc1ccc(CCNc2ncnc3ccc(N)cc23)cc1`, `CCCCCCOc1ccc(CCNc2ncnc3ccc(N)cc23)cc1` is 2-fold higher in IC50: 0.002 µM for the first, 0.004 µM for the second. The first is the more potent here.

Compared with `COc1ccccc1CCNc1ncnc2ccc(N)cc12`, `Nc1ccc2ncnc(NCCc3ccccc3Cl)c2c1` is 1.6-fold higher in IC50: 0.155 µM for the first, 0.254 µM for the second. The first is the more potent here.

Compared with `Nc1ccc2ncnc(NCCc3ccc(Br)cc3)c2c1`, `Nc1ccc2ncnc(NCCc3ccc(F)cc3)c2c1` is 2.8-fold higher in IC50: 0.207 µM for the first, 0.574 µM for the second. The first is the more potent here.

`Clc1ccc(CCNc2nccc3ccccc23)cc1` and `Clc1ccc(CCNc2nncc3ccccc23)cc1` cannot be ordered by IC50: greater than 10 µM for the first, greater than 10 µM for the second.

Compared with `Nc1ccc2ncnc(NCCc3ccc(OCc4ccccn4)cc3)c2c1` [listing 1 of 2 here], `Nc1ccc2ncnc(NCCc3ccc(OCc4ccc5ccccc5n4)cc3)c2c1` is 7.8-fold higher in IC50: 0.012 µM for the first, 0.093 µM for the second.

Compared with `Nc1ccc2ncnc(NCCc3cccc(Cl)c3)c2c1`, `COc1cccc(CCNc2ncnc3ccc(N)cc23)c1` is 1.9-fold lower in IC50: 0.389 µM for the first, 0.21 µM for the second. The second is the more potent here.

`CC(=O)Nc1ccc2ncnc(NCCc3ccc(Cl)cc3)c2c1` and `CC(=O)Nc1ccc(CCNc2ncnc3ccc(N)cc23)cc1` are within 1.5-fold of each other in IC50: 4.56 µM for the first, 5.98 µM for the second.

Compared with `NC(=O)c1ccc(CCNc2ncnc3ccc(N)cc23)cc1`, `CN(C)C(=O)c1ccc(CCNc2ncnc3ccc(N)cc23)cc1` is 2.8-fold lower in IC50: 7.33 µM for the first, 2.59 µM for the second.

`Nc1ccc2ncnc(NCCc3ccc(OCc4ccccn4)cc3)c2c1` [listing 2 of 2 here] and `CCCCOc1ccc(CCNc2ncnc3ccc(N)cc23)cc1` are within 1.5-fold of each other in IC50: 0.014 µM for the first, 0.011 µM for the second.

`COC(=O)C1[C@@H](O)[C@@]2(O)c3c(cc4c(c3OC)OCO4)O[C@@]2(c2ccc(OC)cc2)[C@@H]1c1ccccc1` (some centres not stated) and `COC(=O)C1[C@@H](O)[C@@]2(O)c3c(OC)cc(OC)cc3O[C@@]2(c2ccc3c(c2)OCO3)[C@@H]1c1ccccc1` (some centres not stated) are within 1.5-fold of each other in IC50: 0.243 µM for the first, 0.319 µM for the second.

`Nc1ccc2ncnc(NCCc3ccc(S(N)(=O)=O)cc3)c2c1` and `CC(C)c1cccc(C(C)C)c1N1C(=O)c2ccc(N)cc2C1=O` cannot be ordered by IC50: greater than 10 µM for the first, 29.5 µM for the second.

Going from `COC(=O)C1[C@@H](O)[C@@]2(O)c3c(OC)cc(OC)cc3O[C@@]2(c2ccc(OC)cc2)[C@@H]1c1ccccc1` (some centres not stated) to `COc1ccc([C@@]23Oc4cc(OC)cc(OC)c4[C@]2(O)[C@H](O)[C@H](C(N)=O)[C@H]3c2ccccc2)cc1` [DIDESMETHYLROCAGLAMIDE], the IC50 falls from 0.197 µM to 0.044 µM (4.5-fold).

First: Cc1csc2ncnc(NC3Cc4ccc(C(=O)N5CCOCC5)cc4C3)c12 (configuration not stated)
Second: CC(C)c1cccc(C(C)C)c1N1C(=O)c2cccc(O)c2C1=O
The IC50 of the first is 130-fold lower: 0.038 µM for the first, 4.95 µM for the second.

`CC(C)C[C@@H](C=O)NC(=O)[C@H](CC(C)C)NC(=O)[C@H](CC(C)C)NC(=O)OCc1ccccc1` [MG-132] (Cbz-Leu-Leu-Leu-aldehyde) and `COc1ccc([C@@]23Oc4cc(OC)cc(OC)c4[C@]2(O)[C@H](O)C[C@H]3c2ccccc2)cc1` [ROCAGLAOL] are within 1.5-fold of each other in IC50: 0.715 µM for the first, 0.499 µM for the second.
